Laboratory results published in patent US12162850B2, “Formulations” (Betagenon AB, priority 2019, dated 2024).

Assay: Single dose oral pharmacokinetic studies in rabbits
Type: in vivo
Settings: male, New Zealand White, rabbit, plasma; for AUC(0-t): 25 mg/kg, 25 mg/kg b.w. oral single dose

AUC(0-t) (enteric coated capsule with MgO, rabbit plasma (Example 9)): 1700 ± 248 µg·h/mL
AUC(0-t) (enteric coated capsule with mannitol, rabbit plasma (Example 10)): 1470 ± 78.7 µg·h/mL
Tmax (53 mg/kg, enteric coated capsule with MgO, 53 mg/kg b.w. (equivalent to 50 mg/kg Compound 1) oral single dose, rabbit plasma (Example 11)): 48 ± 24 h
SMILES: O=C(Nc1nc(=O)n(Cc2ccc(Cl)cc2)s1)c1ccc(Cl)cc1.[Na] [Compound 2, 4-chloro-N-[2-[(4-chlorophenyl)methyl]-3-oxo-1,2,4-thiadiazol-5-yl]benzamide sodium salt]
